Reference: ChEMBL document CHEMBL5143621, “Design, synthesis, and biological evaluation of β-carboline 1,3,4-oxadiazole based hybrids as HDAC inhibitors with potential antitumor effects” (Bioorg Med Chem Lett, 2022)
Calls of active or inactive are those of the source. The rule behind the calls is not given here.

Columns and labels:
HCT-116 [1] = assay: Antiproliferative activity against human HCT-116 cells assessed as inhibition of cell proliferation incubated for 72 hrs by MTT assay; type: functional, cell-based; conditions: HCT-116, 72 h
Histone deacetylase 8 = target: T1, Histone deacetylase 8 (Homo sapiens, UniProt Q9BY41); assay: Inhibition of HDAC8 (unknown origin)
T1 sequence (Q9BY41 whole entry): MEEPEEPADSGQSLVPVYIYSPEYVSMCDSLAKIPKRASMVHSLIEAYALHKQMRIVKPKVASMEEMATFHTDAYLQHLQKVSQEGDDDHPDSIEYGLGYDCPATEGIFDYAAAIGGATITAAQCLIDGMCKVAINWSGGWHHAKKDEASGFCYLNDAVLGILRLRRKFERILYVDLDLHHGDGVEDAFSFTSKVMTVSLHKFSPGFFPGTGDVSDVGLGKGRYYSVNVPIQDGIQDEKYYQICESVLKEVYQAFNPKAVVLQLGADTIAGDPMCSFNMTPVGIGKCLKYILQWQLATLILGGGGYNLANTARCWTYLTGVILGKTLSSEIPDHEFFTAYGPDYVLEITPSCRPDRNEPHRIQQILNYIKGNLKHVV

A549 = assay: cells; type: functional, cell-based; conditions: Homo sapiens, A549, 72 h
Description: Antiproliferative activity against human A549 cells assessed as inhibition of cell proliferation incubated for 72 hrs by MTT assay

[2] = target: T2, Protein deacetylase HDAC6 (Homo sapiens, UniProt Q9UBN7); assay: Inhibition of HDAC6 (unknown origin)
T2 sequence (Q9UBN7 whole entry): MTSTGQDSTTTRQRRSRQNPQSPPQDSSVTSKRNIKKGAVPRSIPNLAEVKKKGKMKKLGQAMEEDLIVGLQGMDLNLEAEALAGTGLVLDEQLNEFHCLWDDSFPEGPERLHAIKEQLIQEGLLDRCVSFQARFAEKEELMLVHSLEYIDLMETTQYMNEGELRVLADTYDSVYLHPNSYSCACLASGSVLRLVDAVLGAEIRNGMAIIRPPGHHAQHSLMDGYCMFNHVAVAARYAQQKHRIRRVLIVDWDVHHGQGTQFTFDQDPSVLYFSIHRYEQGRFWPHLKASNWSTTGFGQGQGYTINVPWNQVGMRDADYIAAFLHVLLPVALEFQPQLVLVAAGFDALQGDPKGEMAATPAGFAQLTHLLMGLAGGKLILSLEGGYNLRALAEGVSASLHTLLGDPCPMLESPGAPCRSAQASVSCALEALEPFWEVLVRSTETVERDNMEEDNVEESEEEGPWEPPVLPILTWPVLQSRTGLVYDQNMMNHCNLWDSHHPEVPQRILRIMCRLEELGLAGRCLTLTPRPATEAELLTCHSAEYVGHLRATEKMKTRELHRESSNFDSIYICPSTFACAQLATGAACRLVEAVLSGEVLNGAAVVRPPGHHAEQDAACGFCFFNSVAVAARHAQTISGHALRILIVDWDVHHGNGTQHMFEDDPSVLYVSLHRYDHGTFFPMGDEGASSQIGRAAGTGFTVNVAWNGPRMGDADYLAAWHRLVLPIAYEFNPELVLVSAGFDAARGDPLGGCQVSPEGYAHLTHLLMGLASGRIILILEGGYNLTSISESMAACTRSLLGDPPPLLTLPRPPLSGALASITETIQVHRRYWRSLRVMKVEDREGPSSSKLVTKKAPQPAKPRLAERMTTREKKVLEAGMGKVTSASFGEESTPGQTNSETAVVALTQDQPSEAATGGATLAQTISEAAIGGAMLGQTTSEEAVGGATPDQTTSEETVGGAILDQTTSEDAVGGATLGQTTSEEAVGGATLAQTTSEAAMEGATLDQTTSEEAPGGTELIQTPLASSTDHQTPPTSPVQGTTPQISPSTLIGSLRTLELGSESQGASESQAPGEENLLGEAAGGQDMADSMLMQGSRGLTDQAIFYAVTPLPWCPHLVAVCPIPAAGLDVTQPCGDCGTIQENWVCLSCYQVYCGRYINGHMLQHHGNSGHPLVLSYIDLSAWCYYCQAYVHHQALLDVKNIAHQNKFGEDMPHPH

Histone deacetylase 2 = Histone deacetylase 2 (Homo sapiens, UniProt Q92769); assay: Inhibition of HDAC2 (unknown origin)
Histone deacetylase 3 = Histone deacetylase 3 (Homo sapiens, UniProt O15379); assay: Inhibition of HDAC3 (unknown origin)
MCF7 = assay: cells; type: functional, cell-based; conditions: Homo sapiens, MCF7, 72 h
Description: Antiproliferative activity against human MCF7 cells assessed as inhibition of cell proliferation incubated for 72 hrs by MTT assay

Histone deacetylase 1 = Histone deacetylase 1 (Homo sapiens, UniProt Q13547); assay: Inhibition of HDAC1 (unknown origin)
HCT-116 [3] = assay: Inhibition of colony formation in human HCT-116 cell incubated for 48 hrs by crystal violet staining based analysis; type: functional; conditions: dose 125-500 nM, DDE = dose-dependent effect
in vitro = conditions: human, L02 cells
Description: Cytotoxicity against human L02 cells assessed as inhibition of cell proliferation incubated for 72 hrs by MTT assay

HCT-116 [4] = assay: Inhibition of cell migration in human HCT-116 cells incubated for 48 hrs by wound healing scratch assay; type: functional, cell-based; conditions: dose 125-500 nM, DDE = dose-dependent effect
SW480 = assay: cells; type: functional, cell-based; conditions: Homo sapiens, SW480, 72 h
Description: Antiproliferative activity against human SW480 cells assessed as inhibition of cell proliferation incubated for 72 hrs by MTT assay

HCT-116 [5] = assay: Induction of apoptosis in human HCT-116 cells assessed as increase in number of brilliant blue apoptotic cells at 125 to 500 nM incubated for 48 hrs by Hoechst 33342 staining based fluorescence microscopic analysis; type: functional, cell-based; conditions: dose 125-500 nM
HCT-116 [6] = assay: Induction of apoptosis in human HCT-116 cells at 125 to 500 nM incubated for 48 hrs by AnnexinV-FITC/PI staining based flow cytometry; type: functional, cell-based; conditions: dose 125-500 nM

Sequence of Histone deacetylase 1 (Q13547 whole entry): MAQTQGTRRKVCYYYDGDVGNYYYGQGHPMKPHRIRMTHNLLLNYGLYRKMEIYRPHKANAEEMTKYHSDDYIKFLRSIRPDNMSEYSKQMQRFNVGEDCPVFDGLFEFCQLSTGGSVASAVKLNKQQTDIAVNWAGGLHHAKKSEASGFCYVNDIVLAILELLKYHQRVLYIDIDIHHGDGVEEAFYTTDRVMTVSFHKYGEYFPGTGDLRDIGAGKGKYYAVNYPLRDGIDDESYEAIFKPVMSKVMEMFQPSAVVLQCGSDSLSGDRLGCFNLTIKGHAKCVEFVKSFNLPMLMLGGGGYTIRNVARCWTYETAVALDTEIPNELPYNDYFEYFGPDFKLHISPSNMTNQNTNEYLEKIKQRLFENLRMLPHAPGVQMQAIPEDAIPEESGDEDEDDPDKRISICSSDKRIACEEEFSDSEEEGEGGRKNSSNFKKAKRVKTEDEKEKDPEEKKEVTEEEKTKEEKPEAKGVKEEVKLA
Sequence of Histone deacetylase 2 (Q92769 whole entry): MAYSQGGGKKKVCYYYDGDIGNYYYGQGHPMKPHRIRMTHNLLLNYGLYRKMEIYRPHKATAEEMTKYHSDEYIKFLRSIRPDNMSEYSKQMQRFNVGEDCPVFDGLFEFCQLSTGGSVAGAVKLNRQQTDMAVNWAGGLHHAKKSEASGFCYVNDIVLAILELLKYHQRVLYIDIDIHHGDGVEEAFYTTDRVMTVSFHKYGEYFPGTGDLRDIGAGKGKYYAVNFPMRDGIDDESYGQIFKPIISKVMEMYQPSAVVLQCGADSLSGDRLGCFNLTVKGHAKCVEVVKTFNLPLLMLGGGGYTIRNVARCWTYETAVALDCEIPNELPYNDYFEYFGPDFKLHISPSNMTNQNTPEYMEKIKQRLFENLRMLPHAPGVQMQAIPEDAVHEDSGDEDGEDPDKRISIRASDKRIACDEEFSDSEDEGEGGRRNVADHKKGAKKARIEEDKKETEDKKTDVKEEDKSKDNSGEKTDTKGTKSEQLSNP
Sequence of Histone deacetylase 3 (O15379 whole entry): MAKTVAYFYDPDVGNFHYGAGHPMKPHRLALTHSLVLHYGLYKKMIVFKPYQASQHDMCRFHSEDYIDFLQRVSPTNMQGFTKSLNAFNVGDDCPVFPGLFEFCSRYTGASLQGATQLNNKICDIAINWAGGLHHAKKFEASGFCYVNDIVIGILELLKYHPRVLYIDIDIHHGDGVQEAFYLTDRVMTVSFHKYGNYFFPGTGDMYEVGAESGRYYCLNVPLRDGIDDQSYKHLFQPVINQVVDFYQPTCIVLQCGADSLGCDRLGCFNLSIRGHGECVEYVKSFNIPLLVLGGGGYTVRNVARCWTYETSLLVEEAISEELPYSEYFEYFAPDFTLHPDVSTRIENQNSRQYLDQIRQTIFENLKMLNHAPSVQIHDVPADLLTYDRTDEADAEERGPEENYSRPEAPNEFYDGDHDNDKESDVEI

Question: Which IC50 (HCT-116 [1]) does the source give for `O=C(NO)c1ccc(-c2nnc(-c3cc4c([nH]c5ccccc54)c(-c4ccc(C(F)(F)F)cc4)n3)o2)cc1` here?
Answer: 9400 nM

Question: For `O=C(CCc1nnc(-c2cc3c([nH]c4ccccc43)c(-c3ccccc3)n2)o1)NO`, which IC50 (HCT-116 [1]) is on record?
Answer: > 10000 nM

Question: For `COc1cc(-c2nc(-c3nnc(CCC(=O)NO)o3)cc3c2[nH]c2ccccc23)cc(OC)c1OC`, which IC50 (HCT-116 [1]) is on record?
Answer: 6970 nM

Question: Which IC50 (Histone deacetylase 8) does the source give for `COc1cc(-c2nc(-c3nnc(CCCCC(=O)NO)o3)cc3c2[nH]c2ccccc23)cc(OC)c1OC` here?
Answer: > 600 nM

Question: And the IC50 (A549)?
Answer: 1340 nM

Question: What about the IC50 [2] of the same molecule?
Answer: 7.3 nM

Question: And the IC50 (HCT-116 [1])?
Answer: 190 nM

Question: What about the IC50 (Histone deacetylase 2) of the same molecule?
Answer: 1.2 nM

Question: And the IC50 (Histone deacetylase 3)?
Answer: 3.6 nM

Question: And the IC50 (MCF7)?
Answer: 541 nM

Question: And the IC50 (Histone deacetylase 1)?
Answer: 1.4 nM

Question: For `O=C(CCCc1nnc(-c2cc3c([nH]c4ccccc43)c(-c3ccc(C(F)(F)F)cc3)n2)o1)NO`, which IC50 (HCT-116 [1]) is on record?
Answer: 1360 nM

Question: Which results are given for `O=C(CCCCc1nnc(-c2cc3c([nH]c4ccccc43)c(-c3ccc(C(F)(F)F)cc3)n2)o1)NO`?
Answer: IC50 (Histone deacetylase 8): > 600 nM; inhibition (HCT-116 [3]): Dde; IC50 (A549): 1740 nM; IC50 [2]: 6 nM; IC50 at 72 h (in vitro): > 10000 nM; IC50 (HCT-116 [1]): 173 nM; inhibition (HCT-116 [4]): Dde; IC50 (SW480): 382 nM; IC50 (Histone deacetylase 2): 2.2 nM; IC50 (Histone deacetylase 3): 3.4 nM; Activity (HCT-116 [5]): Active; Activity (HCT-116 [6]): Active; IC50 (MCF7): 695 nM; IC50 (Histone deacetylase 1): 2.2 nM

Question: What does the source list for `Nc1ccccc1NC(=O)c1ccc(-c2nnc(-c3cc4c([nH]c5ccccc54)c(-c4ccc(C(F)(F)F)cc4)n3)o2)cc1`?
Answer: IC50 (HCT-116 [1]): > 10000 nM; IC50 (Histone deacetylase 1): > 600 nM

Question: For `O=C(CCc1nnc(-c2cc3c([nH]c4ccccc43)c(-c3ccc(C(F)(F)F)cc3)n2)o1)NO`, which IC50 (HCT-116 [1]) is on record?
Answer: 2310 nM

Question: With `COc1cc(-c2nc(-c3nnc(CCCC(=O)NO)o3)cc3c2[nH]c2ccccc23)cc(OC)c1OC` as the molecule, how does the IC50 (HCT-116 [1]) read?
Answer: 1850 nM

Question: For `O=C(CCCc1nnc(-c2cc3c([nH]c4ccccc43)c(-c3ccccc3)n2)o1)NO`, which IC50 (HCT-116 [1]) is on record?
Answer: 7180 nM

Question: Which IC50 (HCT-116 [1]) does the source give for `COc1cc(-c2nc(-c3nnc(-c4ccc(C(=O)NO)cc4)o3)cc3c2[nH]c2ccccc23)cc(OC)c1OC` here?
Answer: > 10000 nM

Question: For `O=C(CCCCc1nnc(-c2cc3c([nH]c4ccccc43)c(-c3ccccc3)n2)o1)NO`, which IC50 (A549) is on record?
Answer: < 5000 nM

Question: And the IC50 (HCT-116 [1])?
Answer: 247 nM

Question: What about the IC50 (MCF7) of the same molecule?
Answer: 3760 nM

Question: And the IC50 (Histone deacetylase 1)?
Answer: 1.2 nM
